From patent US20040138237A1, “Novel injectable depot formulations” (Pfizer Inc, priority 2002, published 2004)

Assay: Solubilization of ziprasidone mesylate in concentrated aqueous SBECD solution (concentration, HPLC potency)
Type: physicochemical
Protocol: This particular example employs a high concentration of SBECD to form an aqueous solution of ziprasidone at about 80 mgA/ml with about 56% SBECD. To facilitate drug dissolution, a pre-weighed amount of SBECD (gram weight SBECD equivalent to ml of depot formulation being prepared) was dissolved in water by heating in a water bath at 50° C. Ziprasidone mesylate was added in about 50 mg increments while heat was supplied to maintain the system at 50-60° C. A total of 572.99 mg Ziprasidone mesylate was added to 3 ml of 100% SBECD solution resulting in formation of 140 mgA/ml (191 mg/ml) clear viscous solution. The above solution was cooled to room temperature, and the solution remained clear for 2 weeks. Due to volume expansion, the final concentration of ziprasidone was about 80 mgA/ml with 56% cyclodextrin.
The stock solution was prepared using the same method as described above, however due to the higher solution volume (20 ml), the dissolution time was much longer (over 4 hours) even though micronized ziprasidone mesylate was used. During compounding, significant volume expansion was noted. To correct for the volume expansion, the specific gravity of the solution was determined to be 1.188 gm/ml. The volume of water used to prepare this solution was 20 ml, however, the final volume of the solution was 36.6 ml, and the weight of the solution was 43.5 gm. Therefore, taking into consideration 83% volume expansion, the corrected concentrations of drug and SBECD in this solution are 77 mgA/ml and 55% w/v, respectively.
The extent of solubilization was further confirmed by preparation of 82 mgA/ml ziprasidone solution with 59% SBECD using the same method. Viscosity was greater than 160 cps.

SMILES: O=C1Cc2cc(CCN3CCN(c4nsc5ccccc45)CC3)c(Cl)cc2N1 [ziprasidone]
- corrected concentration of drug in solution (55% w/v SBECD, corrected for 83% volume expansion, scaled-up stock solution): 77 mgA/ml
- potency of solution by HPLC potency method (scaled-up stock solution, 55% w/v SBECD): 75 mgA/ml
- final concentration of ziprasidone in clear aqueous solution (with 56% cyclodextrin (SBECD), after volume expansion): about 80 mgA/ml
